Source: patent publication US20210106708A1, “THERMORESPONSIVE COMPOSITIONS AND METHODS FOR PREVENTING AND DISRUPTING BIOFILMS” (CASE WESTERN RESERVE UNIVERSITY, priority 2018, published 2021)
Entries after “also recorded” stand apart in the source; their conditions may differ. Counter-ions that a name gives are not always drawn.

Legend:
HeLa cells = assay: PrestoBlue cell viability assay; type: cell-based; settings: 200 mM vancomycin; 2 and 24 h incubation; hydrochloride
Protocol: HeLa cells were cultured in Dulbecco's Modified Eagle Medium supplemented with 10% fetal bovine serum and 1% penicillin/streptomycin at 37° C. in 5% CO2 in a humidified atmosphere. The cells were seeded to 100% confluence in clear 96-well tissue culture plates (Costar, Corning, N.Y., USA) for 24 h. The cells were then exposed to the different treatments in media and incubated for the specified time. After treatment, the cells were washed in sterile phosphate buffered saline and incubated in 100 μL/well of DMEM (10% FBS, 1% penicillin/streptomycin). Cell viability was evaluated using the PrestoBlue assay (Invitrogen, USA), following the manufacturer's instructions. Briefly, 10 μL of PrestoBlue assay reagent was directly added to each well and the plates were incubated at the cell culture incubator (37° C. and 5% CO2) for 2 h. The absorbance at 570 and 600 nm were then measured using a SpectraMax i3 microplate reader (Molecular Device Inc., Sunnyvale, Calif.). All assays were performed in triplicates.

S. aureus biofilms = assay: Biofilm dispersal assay (crystal violet stain); type: cell-based
Protocol: S. aureus were cultured overnight in agar plates or in lysogeny broth (LB) with agitation (200 rpm) at 37° C. Biofilm formation was evaluated under static conditions using 12-well plates (Falcon, USA). Bacterial cultures made overnight were diluted to an OD595 of 0.1 and further diluted 100× (˜10^5 CFU/mL) in modified tryptic soy broth (3% NaCl, 0.5% glucose) and each well was filled with 2 mL of the diluted bacterial solution and incubated at 37° C. for 24 h. Biofilm dispersal activities were evaluated by removing the culture media from the biofilms after 24 h and replacing it with saline solution (0.9% NaCl) containing either individual or a combination of amino acids at the specified concentrations (pH 7.4), or the other antimicrobial agents used in the clinic (vancomycin, bacitracin, NeutroPhase, Hibiclens). After exposure to the different treatment methods, the plates were gently washed with phosphate buffered saline (PBS, 1×) thrice and then stained with 500 μL of 0.1% (w/v) crystal violet for 30 min. The wells were then washed with PBS and the crystal violet stain was solubilized with 30% acetic acid. The solution was diluted 20 times and biofilm biomass was estimated by measuring the crystal violet stained biofilm remnants, which absorbs at 595 nm.

CN[C@H](CC(C)C)C(=O)N[C@H]1C(=O)N[C@@H](CC(N)=O)C(=O)N[C@H]2C(=O)N[C@H]3C(=O)N[C@H](C(=O)N[C@H](C(=O)O)c4cc(O)cc(O)c4-c4cc3ccc4O)[C@H](O)c3ccc(c(Cl)c3)Oc3cc2cc(c3O[C@@H]2O[C@H](CO)[C@@H](O)[C@H](O)[C@H]2O[C@H]2C[C@](C)(N)[C@H](O)[C@H](C)O2)Oc2ccc(cc2Cl)[C@H]1O [vancomycin, vancomycin hydrochloride]
in vitro cytotoxicity (HeLa cells): extremely toxic; also recorded: extreme cell toxicity | biofilm disruption (S. aureus biofilms; 200 mM vancomycin, 24 h incubation): promising results | biofilm disruption (S. aureus biofilms; 2 to 256 ppm, 24 h, preformed biofilms): do not disrupt preformed biofilms
